Test results taken from ChEMBL document CHEMBL1201862, “PubChem BioAssay data set” (2004).
Calls of active or inactive are those of the source.

Key:
[1] = biological target: Adenosylmethionine-8-amino-7-oxononanoate aminotransferase (Mycobacterium tuberculosis, UniProt P9WQ81); experiment: Mycobacterium tuberculosis BioA enzyme inhibitor Measured in Biochemical System Using Plate Reader - 2163-02_Inhibitor_Dose_CherryPick_Activity.; type: functional, Mycobacterium tuberculosis UT205
[2] = biological target: T1, Insulin-degrading enzyme (Homo sapiens, UniProt P14735); experiment: activators of endogenous IDE in HEK cells, dose response, cell-based, fluorescence polarization (AID 588439); type: functional
T1 sequence (P14735 whole entry): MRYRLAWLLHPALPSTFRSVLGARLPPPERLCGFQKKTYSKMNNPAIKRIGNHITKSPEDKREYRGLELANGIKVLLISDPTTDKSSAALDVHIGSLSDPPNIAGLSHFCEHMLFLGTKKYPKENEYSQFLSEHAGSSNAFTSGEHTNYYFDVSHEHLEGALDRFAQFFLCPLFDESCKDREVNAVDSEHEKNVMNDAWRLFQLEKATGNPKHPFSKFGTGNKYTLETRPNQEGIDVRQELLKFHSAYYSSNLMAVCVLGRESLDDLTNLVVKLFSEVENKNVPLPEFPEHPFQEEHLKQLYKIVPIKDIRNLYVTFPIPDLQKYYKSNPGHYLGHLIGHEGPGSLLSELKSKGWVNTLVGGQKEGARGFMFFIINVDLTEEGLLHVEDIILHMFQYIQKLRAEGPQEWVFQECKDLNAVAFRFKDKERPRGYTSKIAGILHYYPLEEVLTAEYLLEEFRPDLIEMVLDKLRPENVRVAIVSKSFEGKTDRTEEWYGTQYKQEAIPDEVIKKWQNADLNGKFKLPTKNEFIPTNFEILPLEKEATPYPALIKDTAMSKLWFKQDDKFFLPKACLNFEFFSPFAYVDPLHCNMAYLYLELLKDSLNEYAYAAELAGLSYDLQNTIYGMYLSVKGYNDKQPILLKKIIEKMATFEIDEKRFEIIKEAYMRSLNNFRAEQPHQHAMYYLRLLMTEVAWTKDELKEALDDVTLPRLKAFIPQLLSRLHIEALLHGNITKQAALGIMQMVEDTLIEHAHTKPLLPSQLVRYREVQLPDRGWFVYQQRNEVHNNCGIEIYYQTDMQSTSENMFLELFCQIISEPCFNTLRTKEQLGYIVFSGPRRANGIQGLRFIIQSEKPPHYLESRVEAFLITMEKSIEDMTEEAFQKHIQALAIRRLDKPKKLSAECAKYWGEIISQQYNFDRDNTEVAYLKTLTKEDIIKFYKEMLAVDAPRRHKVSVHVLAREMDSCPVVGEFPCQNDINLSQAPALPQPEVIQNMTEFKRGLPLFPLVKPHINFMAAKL

[3] = biological target: Peroxisome proliferator-activated receptor gamma/Nuclear receptor coactivator 2 (Homo sapiens, UniProt P37231); type: functional;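 also: agonist potency for raising coactivator recruitment to the receptor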
[4] = biological target: Peroxisome proliferator-activated receptor gamma/Nuclear receptor coactivator 1 (Homo sapiens, UniProt P37231); type: functional;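 also: agonist potency as compounds enhance coactivator SRC-1 recruitment to PPARgamma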
[5] = biological target: T1, Insulin-degrading enzyme; experiment: activators of recombinant IDE enzyme, dose response, counter-screen for IDE activator project, biochemical, fluorescence polarization (AID 588681)
[6] = system: HEK293; experiment: HEK cell cytotoxicity by LDH release, dose response, cytotoxicity control for IDE activator project, fluorescence, HEK cells (AID 588440); type: functional, cell-based; details: Homo sapiens;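 also: cytotoxicity by LDH release measuring loss of membrane integrity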
[7] = system: HEK293; experiment: optical interference in Abeta FP readout, dose response, artefact control for IDE activator project, biochemical, fluorescence polarization (AID 588442); type: functional, cell-based; details: Homo sapiens
[8] = biological target: Peroxisome proliferator-activated receptor gamma/Nuclear receptor coactivator 3 (Homo sapiens, UniProt P37231); type: functional;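 also: agonist potency for raising coactivator recruitment to the receptor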
[9] = biological target: T2, ORF 73 (Human herpesvirus 8, UniProt O40947); experiment: inhibitors of C-LANA binding to LBS DNA, dose response, biochemical, fluorescence polarization, cherry-picked samples (AID 504725); set-up: species or system Human gammaherpesvirus 8;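 also: fluorescence polarization of a labeled DNA duplex reporting LANA DNA binding; potency is for inhibitors that block LANA binding to the DNA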
T2 sequence (O40947 whole entry): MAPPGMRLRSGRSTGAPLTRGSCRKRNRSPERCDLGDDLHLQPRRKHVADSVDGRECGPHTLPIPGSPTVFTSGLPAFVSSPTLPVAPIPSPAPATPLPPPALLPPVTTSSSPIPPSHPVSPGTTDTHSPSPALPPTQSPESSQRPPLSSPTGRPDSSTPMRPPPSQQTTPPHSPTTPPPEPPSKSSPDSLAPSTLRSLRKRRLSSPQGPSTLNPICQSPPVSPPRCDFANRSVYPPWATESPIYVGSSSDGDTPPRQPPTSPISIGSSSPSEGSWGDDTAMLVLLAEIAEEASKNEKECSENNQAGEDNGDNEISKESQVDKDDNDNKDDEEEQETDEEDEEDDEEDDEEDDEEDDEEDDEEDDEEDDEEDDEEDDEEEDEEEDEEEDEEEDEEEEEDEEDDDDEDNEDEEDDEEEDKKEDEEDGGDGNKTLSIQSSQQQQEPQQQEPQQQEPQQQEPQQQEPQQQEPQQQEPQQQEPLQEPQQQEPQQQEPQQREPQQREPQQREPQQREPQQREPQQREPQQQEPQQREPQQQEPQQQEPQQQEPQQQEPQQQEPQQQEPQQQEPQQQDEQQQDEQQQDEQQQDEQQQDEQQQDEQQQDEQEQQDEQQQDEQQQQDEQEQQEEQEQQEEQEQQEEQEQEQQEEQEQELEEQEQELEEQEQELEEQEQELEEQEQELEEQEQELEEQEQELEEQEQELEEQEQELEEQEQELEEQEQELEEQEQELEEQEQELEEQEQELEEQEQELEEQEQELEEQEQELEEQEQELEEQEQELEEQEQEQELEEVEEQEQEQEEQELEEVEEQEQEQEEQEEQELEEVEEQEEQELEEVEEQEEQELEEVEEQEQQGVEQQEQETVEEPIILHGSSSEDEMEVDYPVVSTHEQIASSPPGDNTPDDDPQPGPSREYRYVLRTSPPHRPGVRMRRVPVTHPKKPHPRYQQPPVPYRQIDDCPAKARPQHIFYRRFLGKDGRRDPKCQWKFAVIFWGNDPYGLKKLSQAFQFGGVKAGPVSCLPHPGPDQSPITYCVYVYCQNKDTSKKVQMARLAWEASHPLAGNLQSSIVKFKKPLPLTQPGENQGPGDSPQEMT

[10] = biological target: T3, Mitochondrial peptide methionine sulfoxide reductase (Bos taurus, UniProt P54149); experiment: Absorbance-based biochemical high throughput dose response assay for activators of Methionine sulfoxide reductase A (MsrA).; type: functional
T3 sequence (P54149 whole entry): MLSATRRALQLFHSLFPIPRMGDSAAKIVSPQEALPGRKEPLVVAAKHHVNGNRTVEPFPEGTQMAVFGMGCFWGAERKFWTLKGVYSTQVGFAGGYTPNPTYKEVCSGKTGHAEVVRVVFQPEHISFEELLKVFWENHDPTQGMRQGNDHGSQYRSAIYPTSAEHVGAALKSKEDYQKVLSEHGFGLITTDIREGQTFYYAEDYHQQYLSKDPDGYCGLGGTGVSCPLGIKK

[11] = biological target: T3, Mitochondrial peptide methionine sulfoxide reductase; type: functional
[12] = system: BJ; experiment: cytotoxicity toward BJ-TERT fibroblasts, dose response, cell-based, RAS-independent, luminescence (AID 1933); type: functional; details: Homo sapiens
[13] = system: BJ; experiment: cytotoxicity toward BJ-TERT-LT-ST fibroblasts, dose response, cell-based, RAS-independent, luminescence (AID 1935); type: functional; details: Homo sapiens;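 also: BJ fibroblasts immortalized with TERT plus LT and ST oncogenes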
[14] = system: BJ; experiment: cells; type: functional, cell-based; details: Homo sapiens
[15] = system: BJ; experiment: cytotoxicity toward Ras-transformed BJeLR fibroblasts, dose response, cell-based, alamar blue fluorescence, cherrypicked samples (AID 2631); type: functional; details: Homo sapiens;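 also: confirmatory dose-response assay in RAS-dependent BJ fibroblasts engineered with TERT, LT and ST, with cytotoxicity read by fluorescence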
[16] = cytotoxicity toward DRD oncogenic fibroblasts, dose response, cell-based, non-viral oncogenic, luminescence (AID 1934); type: functional; details: Homo sapiens
[17] = biological target: T4, Interleukin-8 (Homo sapiens, UniProt P10145); experiment: Dose Response confirmation of uHTS small molecule hits for cystic fibrosis induced NFkb Inhibitors in a PAF-induced IL8 counterscreen.; type: functional; details: read-out: IC50_Mean
T4 sequence (P10145 whole entry): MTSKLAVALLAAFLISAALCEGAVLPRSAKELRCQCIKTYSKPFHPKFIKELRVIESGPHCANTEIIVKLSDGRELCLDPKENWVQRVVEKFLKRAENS

[18] = LGR2 antagonists, dose response, cell-based, HEK293, CRE-luciferase reporter, cherry pick, set 2 (AID 743343); type: functional;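 also: transfected cells were stimulated with diluted bursicon conditioned medium after compound addition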
[19] = HepG2 cell cytotoxicity, dose response, cytotoxicity control, plate reader, cherry-pick, antagonist series (AID 743416); type: functional, cell-based
[20] = MC4R antagonists, dose response, counter-screen for LGR2 antagonist project, cell-based, plate reader, cherry pick (AID 743444); type: functional;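 also: transfected HEK 293 cells stimulated with alpha-MSH peptide; potency of inhibitors of the alpha-MSH evoked signal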
[21] = biological target: T4, Interleukin-8; experiment: Dose Response confirmation of uHTS small molecule hits for cystic fibrosis induced NFkb Inhibitors in a TNFa-induced IL8 counterscreen.; type: functional; details: read-out: IC50_Mean
[22] = biological target: T5, Protein skinhead-1 (Caenorhabditis elegans, UniProt P34707); type: functional
T5 sequence (P34707 whole entry): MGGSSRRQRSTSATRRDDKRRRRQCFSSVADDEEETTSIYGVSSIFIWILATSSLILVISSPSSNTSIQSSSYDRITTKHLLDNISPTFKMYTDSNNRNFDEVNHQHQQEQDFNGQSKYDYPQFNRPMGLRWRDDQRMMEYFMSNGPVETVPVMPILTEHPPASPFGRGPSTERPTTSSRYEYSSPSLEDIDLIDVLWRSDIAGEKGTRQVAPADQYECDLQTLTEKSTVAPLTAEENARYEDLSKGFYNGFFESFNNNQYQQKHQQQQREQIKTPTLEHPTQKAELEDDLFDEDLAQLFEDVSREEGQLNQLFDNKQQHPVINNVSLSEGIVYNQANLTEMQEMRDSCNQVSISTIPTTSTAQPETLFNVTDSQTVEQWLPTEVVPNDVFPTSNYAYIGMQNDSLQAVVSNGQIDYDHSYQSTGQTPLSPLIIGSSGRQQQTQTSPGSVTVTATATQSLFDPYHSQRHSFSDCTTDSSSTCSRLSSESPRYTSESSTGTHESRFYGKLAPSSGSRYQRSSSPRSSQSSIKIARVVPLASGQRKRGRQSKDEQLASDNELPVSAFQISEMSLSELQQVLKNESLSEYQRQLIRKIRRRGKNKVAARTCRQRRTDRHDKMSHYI

[23] = system: HeLa; experiment: HeLa cell cytotoxicity, dose response, cytotoxicity control for MITF activator project, CellTiter-Glo luminescence, cherry-pick samples (AID 540259); type: functional, cell-based; details: Homo sapiens
[24] = biological target: T6, Low molecular weight phosphotyrosine protein phosphatase (Homo sapiens, UniProt P24666); type: functional; details: read-out: IC50_Mean;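 also: Dose-response confirmation assay measuring inhibition of LMPTP enzyme activity by fluorescence intensity read-out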
T6 sequence (P24666 whole entry): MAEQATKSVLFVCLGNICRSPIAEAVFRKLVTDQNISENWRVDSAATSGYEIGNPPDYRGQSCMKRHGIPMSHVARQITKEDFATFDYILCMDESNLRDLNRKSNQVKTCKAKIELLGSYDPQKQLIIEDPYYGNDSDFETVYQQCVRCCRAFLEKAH

[25] = biological target: DNA (cytosine-5)-methyltransferase 1 (Homo sapiens, UniProt P26358); experiment: DNMT1 methyltransferase inhibitors, confirmation, biochemical, fluorescent molecular beacon (AID 602386); type: functional
Sequence of DNA (cytosine-5)-methyltransferase 1 (P26358 whole entry): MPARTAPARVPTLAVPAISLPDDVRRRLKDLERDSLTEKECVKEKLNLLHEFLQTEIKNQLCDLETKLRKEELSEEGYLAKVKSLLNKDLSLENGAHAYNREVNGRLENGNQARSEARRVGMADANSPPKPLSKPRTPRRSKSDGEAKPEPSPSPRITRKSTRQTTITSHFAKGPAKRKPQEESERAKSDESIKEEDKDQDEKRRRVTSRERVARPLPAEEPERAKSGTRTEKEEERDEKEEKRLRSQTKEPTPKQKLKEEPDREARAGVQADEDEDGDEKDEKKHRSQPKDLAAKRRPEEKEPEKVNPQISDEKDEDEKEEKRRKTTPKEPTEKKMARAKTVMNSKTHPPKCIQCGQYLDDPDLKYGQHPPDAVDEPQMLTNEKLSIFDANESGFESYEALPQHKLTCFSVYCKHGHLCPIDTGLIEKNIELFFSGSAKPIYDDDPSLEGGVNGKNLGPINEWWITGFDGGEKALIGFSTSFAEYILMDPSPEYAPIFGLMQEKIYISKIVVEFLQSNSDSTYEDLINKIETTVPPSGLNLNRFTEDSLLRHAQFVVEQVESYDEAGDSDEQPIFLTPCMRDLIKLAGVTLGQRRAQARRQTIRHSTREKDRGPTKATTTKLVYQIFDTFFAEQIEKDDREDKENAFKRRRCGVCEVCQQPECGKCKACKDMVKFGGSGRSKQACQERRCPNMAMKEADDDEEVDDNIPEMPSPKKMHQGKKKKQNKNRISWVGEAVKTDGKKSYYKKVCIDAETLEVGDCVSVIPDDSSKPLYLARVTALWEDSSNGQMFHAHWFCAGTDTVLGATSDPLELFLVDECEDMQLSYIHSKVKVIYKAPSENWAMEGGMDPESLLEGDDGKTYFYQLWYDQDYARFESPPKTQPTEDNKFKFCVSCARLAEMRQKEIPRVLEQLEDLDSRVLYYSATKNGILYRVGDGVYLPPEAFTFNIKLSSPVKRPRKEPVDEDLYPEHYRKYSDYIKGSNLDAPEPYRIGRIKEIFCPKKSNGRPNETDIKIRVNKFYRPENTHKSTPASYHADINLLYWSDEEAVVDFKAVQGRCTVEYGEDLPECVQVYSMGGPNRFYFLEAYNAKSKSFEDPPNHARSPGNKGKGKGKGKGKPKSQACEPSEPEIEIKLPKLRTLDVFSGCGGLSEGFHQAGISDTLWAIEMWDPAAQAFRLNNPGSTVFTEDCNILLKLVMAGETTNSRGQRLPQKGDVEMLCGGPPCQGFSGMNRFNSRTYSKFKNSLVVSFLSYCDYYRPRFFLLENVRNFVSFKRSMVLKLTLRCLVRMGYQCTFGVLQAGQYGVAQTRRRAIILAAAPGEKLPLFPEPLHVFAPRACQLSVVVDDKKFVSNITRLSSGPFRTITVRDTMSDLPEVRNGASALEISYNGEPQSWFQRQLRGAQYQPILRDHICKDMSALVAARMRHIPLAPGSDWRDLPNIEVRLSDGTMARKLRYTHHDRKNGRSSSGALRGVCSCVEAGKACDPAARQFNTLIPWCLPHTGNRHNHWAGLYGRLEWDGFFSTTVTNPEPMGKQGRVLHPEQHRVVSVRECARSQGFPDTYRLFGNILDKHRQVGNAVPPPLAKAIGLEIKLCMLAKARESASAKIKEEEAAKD

Sequence of Adenosylmethionine-8-amino-7-oxononanoate aminotransferase (P9WQ81 whole entry): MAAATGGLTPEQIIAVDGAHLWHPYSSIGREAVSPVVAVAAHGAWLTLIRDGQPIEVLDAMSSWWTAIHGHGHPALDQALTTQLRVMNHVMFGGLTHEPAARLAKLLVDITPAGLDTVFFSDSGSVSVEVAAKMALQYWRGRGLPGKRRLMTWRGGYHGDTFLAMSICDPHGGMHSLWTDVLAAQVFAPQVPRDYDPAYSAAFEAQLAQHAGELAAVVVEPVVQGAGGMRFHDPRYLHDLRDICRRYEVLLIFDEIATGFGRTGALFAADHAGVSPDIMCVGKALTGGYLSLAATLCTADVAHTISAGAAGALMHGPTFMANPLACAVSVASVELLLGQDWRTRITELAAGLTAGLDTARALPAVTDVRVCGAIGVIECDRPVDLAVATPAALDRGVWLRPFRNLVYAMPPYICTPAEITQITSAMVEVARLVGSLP
Sequence of Peroxisome proliferator-activated receptor gamma/Nuclear receptor coactivator 1 (P37231 whole entry): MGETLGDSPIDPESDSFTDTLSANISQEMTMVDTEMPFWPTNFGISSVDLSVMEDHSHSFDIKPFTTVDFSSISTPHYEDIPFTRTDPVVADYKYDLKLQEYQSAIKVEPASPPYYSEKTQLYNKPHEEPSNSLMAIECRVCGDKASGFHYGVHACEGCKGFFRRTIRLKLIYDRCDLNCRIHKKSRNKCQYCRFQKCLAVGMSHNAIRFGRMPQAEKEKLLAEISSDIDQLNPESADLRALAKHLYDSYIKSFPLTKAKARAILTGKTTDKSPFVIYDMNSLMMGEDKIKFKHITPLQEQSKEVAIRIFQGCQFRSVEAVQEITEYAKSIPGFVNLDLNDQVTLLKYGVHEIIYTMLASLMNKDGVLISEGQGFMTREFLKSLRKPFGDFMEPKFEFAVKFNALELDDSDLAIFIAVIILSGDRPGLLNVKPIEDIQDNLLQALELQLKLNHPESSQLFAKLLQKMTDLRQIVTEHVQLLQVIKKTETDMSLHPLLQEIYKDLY
Sequence of Peroxisome proliferator-activated receptor gamma/Nuclear receptor coactivator 1 (Q15788 whole entry, further chain): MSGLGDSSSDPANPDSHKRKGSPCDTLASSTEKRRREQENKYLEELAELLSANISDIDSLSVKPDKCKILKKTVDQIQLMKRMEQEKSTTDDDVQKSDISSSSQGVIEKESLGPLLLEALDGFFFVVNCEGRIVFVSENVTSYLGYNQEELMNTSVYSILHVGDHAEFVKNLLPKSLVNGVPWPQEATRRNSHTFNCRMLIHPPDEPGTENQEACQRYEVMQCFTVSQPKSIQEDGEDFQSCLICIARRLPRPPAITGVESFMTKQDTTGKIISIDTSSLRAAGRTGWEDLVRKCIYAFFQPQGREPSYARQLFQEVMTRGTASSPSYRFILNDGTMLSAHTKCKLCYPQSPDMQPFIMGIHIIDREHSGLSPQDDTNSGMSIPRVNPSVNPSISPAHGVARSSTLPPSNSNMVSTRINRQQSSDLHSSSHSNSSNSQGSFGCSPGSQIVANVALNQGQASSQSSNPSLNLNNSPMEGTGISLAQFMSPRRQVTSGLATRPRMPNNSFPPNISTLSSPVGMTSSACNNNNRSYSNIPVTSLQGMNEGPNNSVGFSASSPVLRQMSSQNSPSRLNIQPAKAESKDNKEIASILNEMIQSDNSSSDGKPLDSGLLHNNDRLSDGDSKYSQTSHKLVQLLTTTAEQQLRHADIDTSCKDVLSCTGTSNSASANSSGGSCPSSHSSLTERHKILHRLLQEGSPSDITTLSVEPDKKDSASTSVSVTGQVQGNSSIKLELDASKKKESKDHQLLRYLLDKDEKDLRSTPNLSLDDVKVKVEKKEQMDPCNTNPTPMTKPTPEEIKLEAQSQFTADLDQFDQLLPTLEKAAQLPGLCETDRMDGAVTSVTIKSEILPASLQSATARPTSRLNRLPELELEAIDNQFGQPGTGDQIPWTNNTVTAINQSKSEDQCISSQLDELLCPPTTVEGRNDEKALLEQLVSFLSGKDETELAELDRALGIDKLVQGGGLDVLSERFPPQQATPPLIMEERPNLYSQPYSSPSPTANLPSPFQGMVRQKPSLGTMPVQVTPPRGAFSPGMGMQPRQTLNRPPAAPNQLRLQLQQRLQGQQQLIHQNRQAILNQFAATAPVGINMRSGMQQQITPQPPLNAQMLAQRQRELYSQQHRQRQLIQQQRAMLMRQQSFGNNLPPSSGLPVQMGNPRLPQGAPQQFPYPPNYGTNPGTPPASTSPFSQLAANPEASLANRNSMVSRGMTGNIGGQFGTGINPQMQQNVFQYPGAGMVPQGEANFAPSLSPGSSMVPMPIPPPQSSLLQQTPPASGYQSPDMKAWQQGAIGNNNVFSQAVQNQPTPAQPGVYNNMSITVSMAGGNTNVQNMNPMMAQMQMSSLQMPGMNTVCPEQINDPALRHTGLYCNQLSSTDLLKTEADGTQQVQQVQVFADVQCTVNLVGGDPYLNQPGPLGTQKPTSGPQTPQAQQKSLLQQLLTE

## Cc1cc2c(c(=O)n1Cc1cccnc1)C(c1cccs1)C(C#N)=C(N)O2 (stereo unspecified)
[1]
  AC50: 2.08 µM (active)

## COc1ccc2c(-c3ccccc3)cc(SCC(=O)NC(N)=O)nc2c1
[2]
  EC50: > 54.7 µM (inactive)
[3]
  EC50: > 79.4 µM (not active)
[4]
  EC50: > 79.4 µM (not active)
[5]
  EC50: > 54.7 µM (inactive)
[6]
  IC50: 22.3 µM (inactive)
[7]
  EC50: > 55.9 µM (inactive)
[8]
  EC50: > 79.4 µM (not active)

## CC(=O)OCCn1c2nc(=O)[nH]c(=O)c-2nc2cc(C)c(C)cc21
[2]
  EC50: > 54.7 µM (inactive)
[5]
  EC50: > 54.7 µM (inactive)
[9]
  AC50: 0.246 µM (active)
[6]
  IC50: > 89.2 µM (inactive)
[7]
  EC50: > 54.7 µM (inactive)
[10]
  EC50: 54.4 µM (inactive)

## O=C(NC1CCCC1)c1cnn2c(C(F)(F)F)cc(-c3ccc4c(c3)OCO4)nc12
[2]
  EC50: > 54.7 µM (inactive)
[5]
  EC50: > 54.7 µM (inactive)
[6]
  IC50: > 89.2 µM (inactive)
[7]
  EC50: > 55.9 µM (inactive)

## COc1ccc(CNC(=O)c2ccc(=O)oc2)cc1OC
[11]
  IC50: 151 µM (inactive)

## COc1ccc(N/C=C/C(=O)c2cc(OC)c(OC)c(OC)c2)cc1
[12]
  EC50: 0.666 µM (active)
[13]
  EC50: 0.441 µM (inconclusive)
[14]
  EC50: 20.5 µM (inconclusive)
[15]
  EC50: 0.133 µM (active)
[16]
  EC50: 0.603 µM (active)

## Cc1ccc(-c2cc(C(=O)N(C)Cc3cnn(C)c3C)c3cc(Br)ccc3n2)cc1
[17]
  IC50: 1.11 µM (active)
[18]
  AC50: 29.1 µM (active)
[19]
  AC50: 43.1 µM (active)
[20]
  AC50: 26.6 µM (active)
[21]
  IC50: > 79 µM (inactive)

## Clc1ccccc1/C=C/c1nc(-c2cccnc2)no1
[22]
  IC50: > 100 µM (inactive)
[23]
  AC50: 54.3 µM (active)

## COc1cc2c(cc1NC(=O)c1cccnc1)CCCC2
[22]
  IC50: > 100 µM (inactive)
[1]
  AC50: 9.76 µM (active)

## C=CCc1cccc2cc(C(=O)NCc3cccnc3)c(=O)oc12
[24]
  IC50: 21.2 µM (inactive)

## Cn1c2ccccc2c2c(=O)oc3ccccc3c21
[25]
  IC50: > 99 µM (inactive)

## COc1ccccc1N1CCN(/N=C/c2ccc(Cl)c([N+](=O)[O-])c2)CC1
[25]
  IC50: > 99 µM (inactive)

## Cc1ccc(/C=N/NC(=O)c2cc(-c3ccncc3)nc3ccccc23)o1
[12]
  EC50: 2.77 µM (active)
[13]
  EC50: 25.4 µM (active)
[14]
  EC50: 37.5 µM (inconclusive)
[15]
  EC50: 1.41 µM (active)
[16]
  EC50: 2.27 µM (active)
